Source: patent US7026328B2, “Heterocyclic compounds which inhibit leukocyte adhesion mediated by α4 integrins” (Elan Pharmaceuticals, Inc., priority 2002, dated 2006)
pIC50: −log10 of the molar value.

Legend:
[1] = Cassette Dosing and Serum Analysis for Determination of Bioavailability; format: in vivo, rat; details: average AUC 0→12 h, male Sprague Dawley rats, single oral cassette dose (6 compounds, total dose 10 mg/kg), plasma
Experimental: The cassette included 5 test articles and a standard compound, for a total dose of 10 mg/kg. Each compound/test article was converted to the sodium salt with equimolar 1 N NaOH and dissolved in water at 2 mg/mL. The cassette was prepared by mixing equal volumes of each of the six solutions. The cassette dosing solution was mixed well and then the pH was adjusted to 7.5–9. The dosing solution was prepared the day before the study and stirred overnight at room temperature.
Male Sprague Dawley (SD) rats from Charles River Laboratories, 6–8 weeks old were used in this screen. Rats were quarantined for at least one day and had continuous access to food and water. On the night before the administration of the cassette, the rats were fasted for approximately 16 h.
Four SD rats were assigned in each cassette. A single dose of the dosing solution was administered orally to each rat. The dosing volume (5 mL/kg) and time were recorded and rats were fed 2 h after dosing.
Blood samples were collected via cardiac puncture at the following time points: 4 h, 8 h and 12 h. Immediately prior to blood collection, rats were anesthetized with CO2 gas within 10–20 seconds. After the 12-h samples were collected, the rats were euthanized via CO2 asphyxiation followed by cervical dislocation.
Blood samples were kept in heparinized microtainer tubes under sub-ambient temperature (4° C.) before they were processed. Blood samples were centrifuged (10000 rpm for 5 minutes) and plasma samples were removed and stored in a −20° C. freezer until analyzed for drug levels. Drug levels in the plasma were analyzed using the following protocol for direct plasma precipitation.
The in vivo plasma samples were prepared in a 1.5 mL 96-well plate, by adding, in order, 100 μL of the test plasma, 150 μL of methanol, followed by vortexing for 10–20 seconds. 150 μL of 0.05 ng/μL of an Internal Standard in acetonitrile were added and vortexed for 30 seconds.
The standard curve samples were prepared in a 1.5 mL 96-well plate, by adding, in order, 100 μL of control mouse plasma, followed by 150 μL of methanol and vortexing for 10–20 seconds. 150 μL of 0.05 ng/μL of an Internal Standard in acetonitrile were added and vortexed for 30 seconds. The samples were spiked with 0–200 ng (10 concentrations) of the compound of interest in 50% methanol to obtain a standard curve range of 0.5 ng/mL–2,000 ng/mL. Again, the sample was vortexed for 30 seconds.
The samples were then spun for 20–30 minutes at 3000 rpm in an Eppendorf microfuge before 80–90% of supernatant was transferred into a clean 96-well plate. The organic solvent was then evaporated until the samples were dry (under N2 at 40° C./30–60 min (Zymark Turbovap)).
The residue was then dissolved in […] mobile phase (50% CH3OH/0.1% TFA). LC/MS/MS was then run using a PE-Sciex API-3000 triple quadurpole mass spectrometer (SN0749707), Perkin-Elmer, Series200auto-sampler, and shimadzu 10A pump. Acquisition was done with PE-Sciex Analyst (v1.1) and data analysis and quantification were accomplished using PE-Sciex Analyst (v1.1). A 5–50 μL sample volume was injected onto a reverse phase ThermoHypersil DASH-18 column (Keystone 2.0×20 mm, 5 μm, PN: 8823025-701) using a mobile phase of 25% CH3OH, 0.1% TFA-100% CH3OH, 0.1% TFA. The run time was about 8 minutes at a flow rate of about 300 μL/minutes.
The Area Under the Curve (AUC) was calculated using the linear trapezoidal rule from t=0 to the last sampling time tx (see Handbook of Basic Pharmacokinetics, Wolfgang A. Ritschel and Gregory L. Kearns, 5th ed, 1999). AUC^0→tx=S((Cn+Cn+1)/2))·(tn+1−tn)[(μg/mL)h]

α4β1 integrin = molecular target: T1, α4β1 integrin (Homo sapiens, UniProt P05556+P13612); assay: α4β1 Integrin Adhesion Assay: Jurkat Cell Adhesion to Human Plasma Fibronectin; format: cell-based; details: Jurkat cells
T1 construct: Jurkat™ cells (maintained in log phase growth) were labeled with Calcein AM; endogenous in cells; host or cells: Jurkat cells
T1 sequence (P13612 34-1032): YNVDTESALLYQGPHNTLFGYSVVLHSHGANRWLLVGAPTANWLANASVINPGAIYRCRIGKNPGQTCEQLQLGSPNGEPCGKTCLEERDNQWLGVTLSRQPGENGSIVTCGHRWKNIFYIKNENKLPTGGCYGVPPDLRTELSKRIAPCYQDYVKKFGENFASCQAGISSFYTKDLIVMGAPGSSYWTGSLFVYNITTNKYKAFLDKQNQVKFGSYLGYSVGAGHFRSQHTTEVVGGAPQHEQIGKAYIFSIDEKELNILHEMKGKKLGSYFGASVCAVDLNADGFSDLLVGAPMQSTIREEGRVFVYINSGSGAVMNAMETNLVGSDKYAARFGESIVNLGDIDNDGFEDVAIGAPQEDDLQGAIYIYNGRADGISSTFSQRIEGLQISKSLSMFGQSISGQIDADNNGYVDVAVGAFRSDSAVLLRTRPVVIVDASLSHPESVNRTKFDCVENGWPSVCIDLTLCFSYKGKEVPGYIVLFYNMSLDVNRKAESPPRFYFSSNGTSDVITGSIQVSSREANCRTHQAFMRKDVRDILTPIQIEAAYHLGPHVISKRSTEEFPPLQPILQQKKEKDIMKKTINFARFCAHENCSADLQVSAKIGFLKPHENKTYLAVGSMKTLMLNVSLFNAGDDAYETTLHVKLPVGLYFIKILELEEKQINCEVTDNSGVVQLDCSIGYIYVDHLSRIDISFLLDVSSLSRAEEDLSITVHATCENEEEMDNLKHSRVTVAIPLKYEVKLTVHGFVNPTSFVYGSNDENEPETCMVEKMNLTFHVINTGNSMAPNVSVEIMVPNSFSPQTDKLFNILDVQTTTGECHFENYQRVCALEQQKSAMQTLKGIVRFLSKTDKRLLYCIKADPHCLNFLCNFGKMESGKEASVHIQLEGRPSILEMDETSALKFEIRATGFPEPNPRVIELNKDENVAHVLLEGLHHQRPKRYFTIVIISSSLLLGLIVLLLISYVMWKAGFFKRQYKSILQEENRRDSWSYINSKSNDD
T1 sequence (P05556 21-798): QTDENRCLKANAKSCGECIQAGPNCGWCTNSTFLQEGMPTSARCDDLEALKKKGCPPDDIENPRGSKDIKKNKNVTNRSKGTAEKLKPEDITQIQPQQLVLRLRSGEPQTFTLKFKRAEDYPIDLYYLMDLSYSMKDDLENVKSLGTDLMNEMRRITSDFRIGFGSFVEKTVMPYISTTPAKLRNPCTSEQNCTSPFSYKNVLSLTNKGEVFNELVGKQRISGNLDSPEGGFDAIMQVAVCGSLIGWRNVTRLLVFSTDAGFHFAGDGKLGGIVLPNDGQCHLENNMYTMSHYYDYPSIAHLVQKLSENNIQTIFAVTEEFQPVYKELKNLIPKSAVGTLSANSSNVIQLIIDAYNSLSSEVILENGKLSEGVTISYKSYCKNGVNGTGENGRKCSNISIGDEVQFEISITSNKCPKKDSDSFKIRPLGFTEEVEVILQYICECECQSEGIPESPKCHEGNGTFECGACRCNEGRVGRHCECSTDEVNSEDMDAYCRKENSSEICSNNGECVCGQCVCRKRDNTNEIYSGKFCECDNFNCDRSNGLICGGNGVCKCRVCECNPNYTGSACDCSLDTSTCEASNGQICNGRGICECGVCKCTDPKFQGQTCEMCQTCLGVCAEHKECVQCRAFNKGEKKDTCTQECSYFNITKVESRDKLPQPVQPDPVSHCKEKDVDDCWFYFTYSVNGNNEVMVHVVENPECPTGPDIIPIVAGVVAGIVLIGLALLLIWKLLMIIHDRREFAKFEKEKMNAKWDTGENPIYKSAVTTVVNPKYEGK
Experimental: 96 well plates (Costar 3590 EIA plates) were coated with human fibronectin (Gibco/BRL, cat #33016–023) at a concentration of 10 μg/mL overnight at 4° C. The plates were then blocked with a solution of bovine serum albumin (BSA; 0.3%) in saline. Jurkat™ cells (maintained in log phase growth) were labeled with Calcein AM according to the manufacturer's instructions, and suspended at a concentration of 2×10^6 cells/mL in Hepes/Saline/BSA. The cells were then exposed to test and control compounds for 30 minutes at room temperature before transfer to individual wells of the fibronectin coated plate. Adhesion was allowed to occur for 35 minutes at 37° C. The wells were then washed by gentle aspiration and pipetting with fresh saline. Fluorescence associated with the remaining adherent cells was quantified using a fluorescence plate reader at EX 485/EM 530.
Cell cultures were prepared by first splitting the stationary phase Jurkat™ cells at 1:10 on day one, and 1:2 on day two to perform assay on day 3. The cells split 1:10 on day one were split 1:4 on day 3 for a day 4 assay.
The assay plates were prepared by first making a working solution of Gibco/BRL Human Fibronectin (cat #33016-023) in PBS++, at 10 μg/mL. A Costar 3590 EIA plate was then coated with 50 μL/well for 2 hours at room temperature (thought it can also be left overnight at 4° C.). Finally the plate was asperated and blocked with Hepes/Saline Buffer, 100 μL/well, for 1 hour at RT followed by washing 3× with 150 μL of PBS++.
Compound dilutions were accomplished by preparing 1:3 serial dilutions of compounds as follows. For each plate (4 compounds/plate) 600 μL were added to 4 Bio-Rad Titertubes in a Titertube rack. […] Using Falcon Flexiplates, 100 μL of Hepes/Saline buffer or human serum were added to rows B through G. A multi-channel pipetter set to 180 μL was used to with four tips spaced evenly the pipetter. Each set of four tubes was mixed 5 times and 180 μL of 2× compound was transferred to the first column of each compound dilution in Row B, leaving Row A empty. 180 μL were added to the other wells in Row A. Serial dilutions were performed down the plate by transferring 50 μL to the next dilution and mixing 5 times, changing tips each time after mixing.
A 20 μg/mL solution in Hepes/Saline buffer or human serum, of 21/6 antibody was the positive control and was set aside in a reagent trough to add to cell suspension plate.
The cell staining was accomplished by first harvesting the log-phase Jurkat™ cells by centrifugation in 50 mL tubes (1100 rpm for 5 minutes). The cells were resuspended in 50 mL PBS++, spun, and resuspend in 20 mL PBS++. The cells were stained by adding 20 μL of Calcein AM for 30 minutes RT. The volume was brought to 50 mL with Hepes/Saline buffer and the cells were counted, spun, and resuspend to 2×10^6 cells/mL in Hepes/Saline buffer or human serum.
The compounds were incubated using the following procedure. In a new flexiplate, 65 μL of stained cells were added to Rows B through H. Then 65 μL of 2× compounds were added to the appropriate rows following the plate setup and mixed three times. 65 μL of 2×-21/6 antibody were added to Row H and mixed 3×. Finally the plate was incubated at room temperature for 30 minutes.
Fibronectin adhesion was measured using a fluorescent plate reader at EX 485/EM 530 after the following work up procedure. After incubation, the cells were mixed three times and 100 μL were transfered to the Fibronectin coated plates and incubated at 37° C. for about 35 minutes. Each plate was washed, row by row, by gently pipetting 100 μL of RT. PBS++ down the sides of the wells and turning the plate 90 degrees to aspirate. This procedure was repeated for a total of 3 washes. Each well was filled with 100 μL after washing by pipetting down the side of the well.
An IC50 value was calculated for each compound, both in the presence of the human serum and in the absence of human serum.

SMILES	AUC [1]	pIC50 (α4β1 integrin; containing human serum)	pIC50 (α4β1 integrin; without the human serum)
CCN(CC)c1ncc(N(CC)S(=O)(=O)c2ccc(Cl)cc2)c(N[C@@H](Cc2ccc(OC(=O)N3CCCC3)cc2)C(=O)O)n1 [Example 1, N-(2-[N′,N′-diethylamino]-5-[N″-(4-chlorophenylsulfonyl)-N″-ethylamino]pyrimidin-4-yl)-4′-(pyrrolidin-1-ylcarbonyloxy)-L-phenylalanine]	14.798 (μg/mL)h	6.39	7.77
CCN(CC)c1ncc(N(CC)S(=O)(=O)c2ccc(F)cc2)c(N[C@@H](Cc2ccc(OC(=O)N3CCCC3)cc2)C(=O)O)n1 [Example 2, N-(2-[N′,N′-diethylamino]-5-[N″-(4-fluorophenylsulfonyl)-N″-ethylamino]pyrimidin-4-yl)-4′-(pyrrolidin-1-ylcarbonyloxy)-L-phenylalanine]	15.971 (μg/mL)h	6.22	8.80
CCN(CC)c1ncc(N(C)S(=O)(=O)c2ccc(F)cc2)c(N[C@@H](Cc2ccc(OC(=O)N3CCCC3)cc2)C(=O)O)n1 [Example 3, N-(2-[N′,N′-diethylamino]-5-[N″-(4-fluorophenylsulfonyl)-N″-methylamino]pyrimidin-4-yl)-4′-(pyrrolidin-1-ylcarbonyloxy)-L-phenylalanine]	22.271 (μg/mL)h	5.76	8.19
CCN(CC)c1ncc(N(C)S(=O)(=O)c2ccc(Cl)cc2)c(N[C@@H](Cc2ccc(OC(=O)N3CCCC3)cc2)C(=O)O)n1 [Example 4, N-(2-[N′,N′-diethylamino]-5-[N″-(4-chlorophenylsulfonyl)-N″-methylamino]pyrimidin-4-yl)-4′-(pyrrolidin-1-ylcarbonyloxy)-L-phenylalanine]	13.829 (μg/mL)h	5.64	7.72
CCN(CC)c1ncc(N(C)S(=O)(=O)c2ccc(F)cc2)c(N[C@@H](Cc2ccc(OC(=O)N3CCCCC3)cc2)C(=O)O)n1 [Example 5, N-(2-[N′,N′-diethylamino]-5-[N″-(4-fluorophenylsulfonyl)-N″-methylamino]pyrimidin-4-yl)-4′-(piperidin-1-ylcarbonyloxy)-L-phenylalanine]	2.1654 (μg/mL)h	5.80	8.22
CCN(CC)c1ncc(N(CC)S(=O)(=O)c2ccc(F)cc2)c(N[C@@H](Cc2ccc(OC(=O)N3CCCCC3)cc2)C(=O)O)n1 [Example 6, N-(2-[N′,N′-diethylamino]-5-[N″-(4-fluorophenylsulfonyl)-N″-ethylamino]pyrimidin-4-yl)-4′-(piperidin-1-ylcarbonyloxy)-L-phenylalanine]	0.5125 (μg/mL)h	6.15	8.33
CCN(CC)c1ncc(N(CC)S(=O)(=O)c2ccc(F)cc2)c(N[C@@H](Cc2ccc(OC(=O)N3CCC3)cc2)C(=O)O)n1 [Example 7, N-(2-[N′,N′-diethylamino]-5-[N″-(4-fluorophenylsulfonyl)-N″-ethylamino]pyrimidin-4-yl)-4′-(azetidin-1-ylcarbonyloxy)-L-phenylalanine]	0.8979 (μg/mL)h	7.06	8.79
CCN(CC)c1ncc(N(C)S(=O)(=O)c2ccc(F)cc2)c(N[C@@H](Cc2ccc(OC(=O)N3CCC3)cc2)C(=O)O)n1 [Example 8, N-(2-[N′,N′-diethylamino]-5-[N″-(4-fluorophenylsulfonyl)-N″-methylamino]pyrimidin-4-yl)-4′-(azetidin-1-ylcarbonyloxy)-L-phenylalanine]	2.4082 (μg/mL)h	6.65	8.78
CCN(CC)c1ncc(N(C)S(=O)(=O)c2ccc(Cl)cc2)c(N[C@@H](Cc2ccc(OC(=O)N3CCC3)cc2)C(=O)O)n1 [Example 9]	2.0774 (μg/mL)h	6.68	8.49
CCN(CC)c1ncc(N(CC)S(=O)(=O)c2ccc(Cl)cc2)c(N[C@@H](Cc2ccc(OC(=O)N3CCC3)cc2)C(=O)O)n1 [Example 10, N-(2-[N′,N′-diethylamino]-5-[N″-(4-chlorophenylsulfonyl]-N″-ethylamino]pyrimidin-4-yl)-4′-(azetidin-1-ylcarbonyloxy)-L-phenylalanine]	2.1113 (μg/mL)h	7.08	8.39
C#CCN(c1cnc(N(CC)CC)nc1N[C@@H](Cc1ccc(OC(=O)N2CCCC2)cc1)C(=O)O)S(=O)(=O)c1ccc(F)cc1 [Example 15, N-(2-[N′,N′-diethylamino]-5-[N″-(4-fluorophenylsulfonyl)-N″-propargylamino]pyrimidin-4-yl)-4′-(pyrrolidin-1-ylcarbonyloxy)-L-phenylalanine]	90.317 (μg/mL)h	–	–
C#CCN(c1cnc(N(CC)CC)nc1N[C@@H](Cc1ccc(OC(=O)N2CCCC2)cc1)C(=O)O)S(=O)(=O)c1ccc(Cl)cc1 [Example 19, N-(2-[N′,N′-diethylamino]-5-[N″-(4-chlorophenylsulfonyl)-N″-propargylamino]pyrimidin-4-yl)-4′-(pyrrolidin-1-ylcarbonyloxy)-L-phenylalanine]	–	5.20	8.16
